# Marks after values point to notes of the source that are not given here.
# Tests used:
# Assay type in all cases: in vivo
# [1] = test system: Wistar male rats; experiment: Forced swim test (rat, rFST); settings: for Immobile posture time (sec.)/4 minutes, Treatment: rat, administered orally 60 minutes before testing
# Experimental: (§1) In order to determine the anti-depressant effect in rodents, the forced swim test was performed with rats and mice. The forced swim test causes an immobile state by forcing an animal to swim in a confined space. It reflects a state of despair giving up evading such a circumstance. ICR male mice (25 g to 30 g) and Wistar male rats (240 g to 260 g) were purchased from Samtako Bio Korea Co. (Korea) and allowed to acclimatize for 1 week before being tested in a controlled animal facility (temperature 22±2° C., humidity 55±5%). The test compound was dissolved in 20% Tween80 and administered orally 60 minutes before testing. The control group was provided with a corresponding vehicle. […] 15 minutes of forced swimming was performed a day before the experiment. On the day of the experiment, the animal was placed in the cylinder 60 minutes after the administration of the compound and was videotaped for 6 minutes. In the recorded videos, time during which the animal placed its head on the water and remained still without movement was measured based on the remaining 4 minutes excluding the first 2 minutes. It was evaluated that the lower the value of the immobile posture time, the greater the anti-depressant action (Reference; Porsolt R D, Le Pichon M. Jalfre M. 1997. Depression: a new animal model sensitive to antidepressant treatments. Nature. April 21; 266(5604):730-2.).
# (§2) The result was shown as the standard error of measurement (SEM) of mean value t mean value. Behavioral data were analyzed by one-way ANOVA. For statistical significance, a value of <0.05 was taken (***p<0.001, **p=0.001˜0.01, *p=0.01˜0.05). Data management and statistics were performed using the Prism software of Windows version 4 (GraphPad Softward Co., San Diego, CA, USA).
# (§3) Based on the results of Table 7, the ED50 value of the compound of Example 2 was calculated and shown in Table 7, and after 30 mg/kg and 60 mg/kg of the compounds of the other remaining examples were administered based on TD50 values to perform the forced swim tests, respectively, the administration doses with protected efficacy and protection % at the corresponding administration doses were shown in Table 7.
# [2] = test system: rats that gave birth, chronic administration of corticosterone; experiment: PPD (chronic CORT induced PPD model), forced swim test; settings: postpartum depression rat, 30 mg/kg, intraperitoneally 15 minutes before testing
# Experimental: In order to confirm the effect on postpartum depression in rats, the forced swim test was conducted after chronic administration of corticosterone, a depression-causing substance, to rats that gave birth. The forced swim test causes an immobile state by forcing an animal to swim in a confined space. It reflects a state of despair giving up evading such a circumstance. Rats on the 15th day of pregnancy were purchased from Koatech (Korea) and allowed to acclimatize for 1 week before being tested in a controlled animal facility (temperature 22±2° C., humidity 55±5%). […] In the recorded videos, the time during which the animal placed its head on the water and remained still without movement was measured based on the remaining 4 minutes excluding the first 2 minutes. It was evaluated that the lower the value of the immobile posture time, the greater the anti-depressant action (Reference; S. Brummelte et al. Chronic corticosterone during pregnancy and affects maternal care, cell proliferation and depressive-like behavior in the dam. Hormones and Behavior 58 (2010) 769˜779, Porsolt R D, Le Pichon M, Jalfre M. 1997. Depression: a new animal model sensitive to anti-depressant treatments. Nature. April 21; 266(5604):730˜2.).
# The result was shown as the standard error of measurement (SEM) of mean value±mean value. Behavioral data were analyzed by one-way ANOVA. […]
# [3] = test system: ICR male mice; experiment: Forced swim test (mouse, mFST); settings: for Immobile posture time (sec.)/4 minutes, Treatment: mouse, administered orally 60 minutes before testing
# Experimental: as §1, §2, §3
# [4] = test system: ICR male mice; experiment: Light dark choice test; settings: mouse, 60 minutes before testing
# Experimental: The light-dark choice test is a model for anxiety-like behavior. This test is based on innate aversion of rodents to brightly lit areas and their voluntary exploration behaviors for light stress factors, that is, new environments and light. ICR male mice (30 g to 35 g) were purchased from Orient Bio Korea Co. (Korea) and allowed to acclimatize for 1 week before being tested in a controlled animal facility (temperature 22±2° C., humidity 55±5%). When treatment began, the weight of the animals was 35±5% g. The test compound for oral administration was dissolved in 30% PEG400 and administered at a dose per body weight of 10 mL/kg 60 minutes before testing. The test compound for intraperitoneal administration was dissolved in 20% Tween80 and administered at a dose per body weight of 10 mL/kg 60 minutes before testing. The control group was provided with a corresponding vehicle. An acryl box (45 cm×27 cm×27 cm) was composed of 2 chambers (white color: ⅔ of the box, black color: ⅓ of the box) connected by an opening (7.5 cm×7.5 cm) located at the bottom surface of the center of a partition wall. Each mouse was placed in the white part of the box and allowed to roam freely for a 5-minute session. At the end of the session, mice were returned to their habitat cage, and the experimental box was cleanly wiped with a 70% alcohol solution. All experiments were videotaped. After testing, all video recordings were analyzed. The obtained results are shown in Table 5 below (Reference; Bourin, M., Hascoet, M. 2003. The mouse light/dark box test. European Journal of Pharmacology, 463, 55-65. Bouwknecht, J A., Paylor, R. 2002. Behavioral and physiological mouse assays for anxiety: a survey in nine mouse strains. Behavioural Brain Research, 136, 489-501.).
structure (smiles),measurement,setting,value
"CC1(C)O[C@@H](COS(N)(=O)=O)[C@H](c2ccccc2Cl)O1 [Example 2, ((4S,5S)-5-(2-chlorophenyl)-2,2-dimethyl-1,3-dioxolan-4-yl)methyl sulfamate]",ED50,"[1]; rat forced swim test, po",13.3 mg/kg
same,"Immobile posture time (sec.)/4 minutes, Treatment",[1]; 5 mg/kg,160.7 ± 3.8 sec./4 minutes
same,"Immobile posture time (sec.)/4 minutes, Treatment",[1]; 10 mg/kg,117.3 ± 12.2** sec./4 minutes
same,"Immobile posture time (sec.)/4 minutes, Treatment",[1]; 20 mg/kg,51.0 ± 11.6** sec./4 minutes
same,"Immobile posture time (sec.)/4 minutes, Treatment",[2],5.07 sec./4 minutes
same,ED50,"[3]; mouse forced swim test, po",23.5 mg/kg
same,"Immobile posture time (sec.)/4 minutes, Treatment",[3]; 10 mg/kg,105.7 ± 6.9** sec./4 minutes
same,"Immobile posture time (sec.)/4 minutes, Treatment",[3]; 20 mg/kg,80.5 ± 8.6** sec./4 minutes
same,"Immobile posture time (sec.)/4 minutes, Treatment",[3]; 40 mg/kg,61.2 ± 20.1** sec./4 minutes
same,"White box duration time (sec.)/5 minutes, Treatment","[4]; intraperitoneal, 10 mg/kg",189.0 ± 10.8 sec./5 minutes
same,"White box duration time (sec.)/5 minutes, Treatment","[4]; intraperitoneal, 30 mg/kg",208.1 ± 13.2 sec./5 minutes
same,"White box duration time (sec.)/5 minutes, Treatment","[4]; intraperitoneal, 40 mg/kg",219.2 ± 13.3 sec./5 minutes
same,"White box duration time (sec.)/5 minutes, Treatment","[4]; oral, 10 mg/kg",136.4 ± 4.2 sec./5 minutes
same,"White box duration time (sec.)/5 minutes, Treatment","[4]; oral, 30 mg/kg",140.0 ± 12.3 sec./5 minutes
same,"White box duration time (sec.)/5 minutes, Treatment","[4]; oral, 40 mg/kg",193.1 ± 8.7 sec./5 minutes

# Reference: US11896593B2, “Sulfamate derivative compounds for use in treating or alleviating a psychiatric disorder” (Bio-Pharm Solutions Co., Ltd., priority 2020, dated 2024)
